For series [1], the system named is Trypanosoma cruzi, epimastigote form of the Tulahuen 2 strain. The series can be described thus: In vitro growth inhibition of Trypanosoma cruzi epimastigotes (Tulahuen 2 strain), absorbance at 600 nm. The following applies: 120 h, absorbance on day 5, duplicate, error ±3%, read-out: IC50 Anti-T. cruzi activity of the Tulahuen 2 strain. Format: cell-based. The protocol: The studies of the antichagasic activity were performed in vitro against Trypanosoma cruzi, on the epimastigote form of the Tulahuen 2 strains, (from the strains collection of the Biological Physicochemistry Laboratory, of the Institute of Biological Chemistry, of the Faculty of Science, University of the Republica Oriental of Uruguay, Uruguay). Said strains were cultured at 28° C. in an axenic medium (BHI-tryptose), complemented with 5% of fetal bovine serum. […] The growth of the parasite was followed during 11 days by culture absorbance measurements at 600 nm, proportional to the number of cells present. Before inoculation, a pre-established quantity of each compound of the invention to test was incorporated in the medium, dissolved in DMSO (dimethylsulfoxide). The final concentration of DMSO in the culture medium never exceeded 0.4%, using a blank (absence of product or compound of the invention) with 0.4% DMSO. […] The growth PI was calculated as follows: PI={1−[(Ap−Aop)/(Ac−Aoc)]}×100 where: • Ap=A600 nm of the culture containing the product on day 5. • Aop=A600 nm of the culture containing the product after addition of the culture (day 0). • Ac=A600 nm of the blank on day 5. • Aoc=A600 nm of the blank on day 0. The A600 nm taken on day 5 corresponds to the late exponential phase in the culture growth curve. The determination of the IC50 (half maximal inhibitory concentration) was performed following the growth of the parasite in the absence (control) and presence of increasing concentrations of the corresponding products. The absorbance was measured on day 5 and it was related to the control.

The target in the next series is cruzipain (Trypanosoma cruzi, UniProt P25779). The series can be described thus: Cruzipain enzyme inhibition (chromogenic substrate Bz-Pro-Phe-Arg-p-NA, absorbance 410 nm). Format: biochemical. As to conditions: 10 min preincubation, pH 7.6, read-out: % Inhibition CP (cruzipain); for inhibition at 25 µM: 25 μM inhibitor; for inhibition at 50 µM: 50 μM inhibitor; for inhibition at 100 µM: 100 μM inhibitor. The method, then:
The capacity of inhibiting the cruzipain enzyme was performed according to the protocol detailed below: cruzipain (10 μL) was incubated with a reaction mixture containing a final concentration of 50 mM of Tris-HCl buffer solution, pH 7.6, 10 mM β-mercaptoethanol and 25, 50 or 100 μM of the inhibitor during 10 min at ambient temperature. Later the chromogenic substrate Bz-Pro-Phe-Arg-p-NA was aggregated at a final concentration of 150 μM, and the increase in absorbance at 410 nm was followed for 5 min at temperature in a Beckman DU 650 spectrophotometer. The inhibitors were added dissolved in DMSO and the controls (100% of enzymatic activity) contained the same concentration of solvent. The final volume of the assay is 100 μL. The values represented at least three independent assays. The data obtained for some of the derivatives in table 3 are shown by way of example.

For the next series, the system named is J774 murine macrophages. The series can be described thus: Non-specific cytotoxicity against J774 murine macrophages (MTT/formazan). Format: cell-based. The following applies: for IC50: Mus musculus, read-out: IC50 concentration of compound which reduces the growth of macrophages by 50%; for PC J774 macrophages (%) (percentage of non-specific cytotoxicity): MTT. The protocol: The cellular viability was determined based on the conservation of mitochondrial activity by the MTT/formazan method.

Setting [2] is: J774 murine macrophages, 48 hours, average of two evaluations.

Broadly, the inhibition is the relative decrease from the control value, in per cent. As usually defined, the melting point is the temperature of the solid-liquid transition.

Where two headings read alike, the source gives them in different places.

Sequence of cruzipain (P25779 123-467): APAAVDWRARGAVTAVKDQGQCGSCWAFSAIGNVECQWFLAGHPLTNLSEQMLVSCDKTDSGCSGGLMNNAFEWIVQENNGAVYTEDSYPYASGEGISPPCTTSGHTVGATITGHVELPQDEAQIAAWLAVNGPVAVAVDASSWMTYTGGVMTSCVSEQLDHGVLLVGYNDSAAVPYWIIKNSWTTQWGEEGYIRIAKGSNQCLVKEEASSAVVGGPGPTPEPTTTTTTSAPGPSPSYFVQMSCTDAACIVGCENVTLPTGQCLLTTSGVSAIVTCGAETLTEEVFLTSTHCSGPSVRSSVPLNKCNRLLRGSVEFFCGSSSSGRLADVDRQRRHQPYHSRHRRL

Consider `NC1=NS(=O)(=O)Nc2nc(-c3ccccc3F)[nH]c21`, for which, in series [1], the IC50 was found to be 20.2 µM.

Turning to `NC1=NS(=O)(=O)Nc2nc(-c3ccsc3)[nH]c21`, the IC50 in series [1] is 22.2 µM.

For the molecule `CN(C)c1ccc(-c2nc3c([nH]2)C(N)=NS(=O)(=O)N3)cc1`, in series [1], the IC50 amounted to 28.5 µM.

Turning to `NC1=NS(=O)(=O)Nc2nc(C3CCCC3)[nH]c21`, in series [1], the IC50 was 28.9 µM.

As to `CN1c2nc(-c3ccsc3)[nH]c2C(N)=NS1(=O)=O`, the IC50 in series [1] came to 26.2 µM.

Regarding `CCc1nc2c([nH]1)C(N)=NS(=O)(=O)N2`, in series [1], the IC50 is 28.5 µM.

Regarding `NC1=NS(=O)(=O)N(Cc2ccccc2)c2nc(-c3ccccc3)[nH]c21`, the IC50 in series [1] is 29.5 µM.

Take `NC1=NS(=O)(=O)N(Cc2ccccc2)c2nc(C3CCCCC3)n(Cc3ccc(Cl)cc3)c21`: on cruzipain, the inhibition at 25 µM came to 10%, the inhibition at 50 µM was determined as 39% and the inhibition at 100 µM amounted to 40%.

For the molecule `NC1=NS(=O)(=O)N(Cc2ccc(Cl)cc2)c2nc(C3CCCCC3)n(Cc3ccc(Cl)cc3)c21`, the inhibition at 100 µM on cruzipain amounted to 31%.

As to `NC1=NS(=O)(=O)N(Cc2ccc(Cl)cc2)c2nc(C3CCCCC3)[nH]c21`, at cruzipain, the inhibition at 25 µM worked out at 0%, the inhibition at 50 µM was 7% and the inhibition at 100 µM is 28%.

As to `O=C(Cn1ccnc1[N+](=O)[O-])NCc1ccccc1` [Benznidazole, N-benzyl-2-nitro-1-imidazole acetamide, reference compound], the IC50 in series [1] was 7.4 µM.

For the molecule `NC1=NS(=O)(=O)Nc2nc(C3CCCCC3)[nH]c21` [Example 1a, 4-amino-6-cyclohexyl-1H,5H-imidazo[4,5-c][1,2,6]thiadiazine 2,2-dioxide], the melting point fell in the range of 263 to 265 °C.

Molecule `NC1=NS(=O)(=O)Nc2nc(C3CCOC3)[nH]c21` (stereo not shown) [Example 1b, 4-amino-6-(3-tetrahydrofuryl)-1H,5H-imidazo[4,5-c][1,2,6]thiadiazine 2,2-dioxide] showed a melting point of 238 to 240 °C.

The molecule `NC1=NS(=O)(=O)Nc2nc(CCc3ccccc3)[nH]c21` [Example 1c, 4-amino-6-phenethyl-1H,5H-imidazo[4,5-c][1,2,6]thiadiazine 2,2-dioxide] had a melting point of 190 to 192 °C.

As for `NC1=NS(=O)(=O)N(Cc2ccccc2)c2nc(-c3ccccc3)n(Cc3ccccc3)c21` [Example 3a, 4-amino-1,5-dibenzyl-6-phenylimidazo[4,5-c][1,2,6]thiadiazine 2,2-dioxide], the melting point fell in the range of 238 to 240 °C.

In turn, `NC1=NS(=O)(=O)N(Cc2ccccc2)c2nc(-c3ccccc3)n(Cc3ccc(Cl)cc3)c21` [Example 3b, 4-amino-1-benzyl-5-(4-chlorobenzyl)-6-phenylimidazo[4,5-c][1,2,6]thiadiazine 2,2-dioxide] gave a melting point of 245 to 247 °C.

As for `CC(=O)N1CCN(c2ccc(OCC3COC(Cn4ccnc4)(c4ccc(Cl)cc4Cl)O3)cc2)CC1` (stereo not shown) [Ketoconazole, reference compound], in the series on J774 murine macrophages (J774, 48 h), the IC50 was less than 100 µM.

As to `CC1CS(=O)(=O)CCN1N=Cc1ccc([N+](=O)[O-])o1` (stereo not shown) [Nifurtimox, 4-([5 nitrofurfurylidene]-amino)-3-methylthiomorpholine-1,1-dioxide, reference compound], the IC50 in series [1] stood at 7.7 µM; in the series on J774 murine macrophages (J774, 48 h) it was 316 µM.

`CN(C/C=C/C#CC(C)(C)C)Cc1cccc2ccccc12` [Terbinafine, reference compound]: the “PC J774 macrophages (%) (percentage of non-specific cytotoxicity)” value was determined as 10.0% with J774 murine macrophages (100 μM compound, 48 hours); 26.0% in the series with J774 murine macrophages (200 μM compound, 48 hours); 60.0% in the series with J774 murine macrophages (400 μM compound, 48 hours). In the series with J774 murine macrophages (setting [2]), the IC50 amounted to 339 µM.

`NC1=NS(=O)(=O)Nc2nc(Cc3ccccc3)[nH]c21` [drawing 7]: in series [1], the IC50 was 16.2 µM.

`CN1c2nc(-c3ccccc3)[nH]c2C(N)=NS1(=O)=O` [drawing 8]: in series [1], the IC50 amounted to 16.7 µM.

On to `NC1=NS(=O)(=O)N(Cc2ccccc2)c2nc(-c3ccccc3)n(Cc3ccccc3)c21` [drawing 10], for which the IC50 in series [1] amounted to 4.5 µM.

`NC1=NS(=O)(=O)Nc2nc(C3CCCCC3)[nH]c21` [drawing 11]: the IC50 in series [1] stood at 12.7 µM.

`NC1=NS(=O)(=O)Nc2nc(C3CCOC3)[nH]c21` (stereo not shown) [drawing 12]: the IC50 in series [1] stood at 20.3 µM.

For `NC1=NS(=O)(=O)Nc2nc(CCc3ccccc3)[nH]c21` [drawing 14], the IC50 in series [1] amounted to 11.5 µM.

Regarding `NC1=NS(=O)(=O)N(Cc2ccc(Cl)cc2)c2nc(-c3ccccc3F)[nH]c21` [drawing 16], the IC50 in series [1] worked out at 7 µM.

Consider `NC1=NS(=O)(=O)N(Cc2ccccc2)c2nc(C3CCCCC3)n(Cc3ccccc3)c21` [drawing 17], for which the IC50 in series [1] is 28.7 µM.

With `NC1=NS(=O)(=O)N(Cc2ccccc2)c2nc(-c3ccccc3)n(Cc3ccc(Cl)cc3)c21` [drawing 18], in series [1], the IC50 turned out to be 10 µM.

For the molecule `NC1=NS(=O)(=O)Nc2nc(Cc3ccccc3)[nH]c21` [drawing 19], the “PC J774 macrophages (%) (percentage of non-specific cytotoxicity)” value turned out to be 17.6% with J774 murine macrophages (100 μM compound, 48 hours); 24.3% with J774 murine macrophages (200 μM compound, 48 hours); 29.4% with J774 murine macrophages (400 μM compound, 48 hours). For the same molecule, the IC50 in the series with J774 murine macrophages (setting [2]) is greater than 400 µM.

Regarding `NC1=NS(=O)(=O)Nc2nc(C3CCCCC3)[nH]c21` [drawing 20], the “PC J774 macrophages (%) (percentage of non-specific cytotoxicity)” value in the series on J774 murine macrophages (100 μM compound, 48 hours) turned out to be 1.4%; in the series on J774 murine macrophages (200 μM compound, 48 hours), 8.0%; in the series on J774 murine macrophages (400 μM compound, 48 hours), 11.5%. Further, in the series with J774 murine macrophages (setting [2]), the IC50 was greater than 400 µM.

For `NC1=NS(=O)(=O)N(Cc2ccc(Cl)cc2)c2nc(-c3ccccc3F)[nH]c21` [drawing 21], the “PC J774 macrophages (%) (percentage of non-specific cytotoxicity)” value worked out at 100.0% in the series on J774 murine macrophages (100 μM compound, 48 hours); 100.0% in the series with J774 murine macrophages (200 μM compound, 48 hours); 100.0% in the series with J774 murine macrophages (400 μM compound, 48 hours). Further, the IC50 in the series on J774 murine macrophages (setting [2]) is less than 100 µM.

As for `CN1c2nc(-c3ccccc3)[nH]c2C(N)=NS1(=O)=O` [drawing 22], the “PC J774 macrophages (%) (percentage of non-specific cytotoxicity)” value with J774 murine macrophages (100 μM compound, 48 hours) was 22.5%; with J774 murine macrophages (200 μM compound, 48 hours), 77.5%; in the series on J774 murine macrophages (400 μM compound, 48 hours), 99.0%. Also, the IC50 in the series on J774 murine macrophages (setting [2]) came to 128 µM.

Consider `NC1=NS(=O)(=O)N(Cc2ccccc2)c2nc(C3CCCCC3)n(Cc3ccccc3)c21` [drawing 23], for which, on cruzipain, the inhibition at 25 µM was 0%, the inhibition at 50 µM was determined as 30% and the inhibition at 100 µM is 58%.

`NC1=NS(=O)(=O)N(Cc2ccc(Cl)cc2)c2nc(-c3ccccc3F)[nH]c21` [drawing 27]: on cruzipain, the inhibition at 25 µM worked out at 7%, the inhibition at 50 µM amounted to 30% and the inhibition at 100 µM is 30%.
